In BindingDB's records for doi:10.1002/cbic.201200279 (University of Southampton, 2012):
Square brackets hold non-standard residues; d marks the D form. Peptide text beside a SMILES is read from it. NMeY = CN[C@@H](Cc1ccc(O)cc1)C(=O)O

These molecules were tested against Bifunctional purine biosynthesis protein ATIC (Homo sapiens, UniProt P31939) (assay: Enzyme Inhibition Assay). Conditions: 25 °C.
Description: Enzyme inhibition using aminoimidazole carboxamide ribonucleotide transformylase/inosine monophosphate cyclohydrolase (ATIC).

Sequence of Bifunctional purine biosynthesis protein ATIC (P31939 whole entry): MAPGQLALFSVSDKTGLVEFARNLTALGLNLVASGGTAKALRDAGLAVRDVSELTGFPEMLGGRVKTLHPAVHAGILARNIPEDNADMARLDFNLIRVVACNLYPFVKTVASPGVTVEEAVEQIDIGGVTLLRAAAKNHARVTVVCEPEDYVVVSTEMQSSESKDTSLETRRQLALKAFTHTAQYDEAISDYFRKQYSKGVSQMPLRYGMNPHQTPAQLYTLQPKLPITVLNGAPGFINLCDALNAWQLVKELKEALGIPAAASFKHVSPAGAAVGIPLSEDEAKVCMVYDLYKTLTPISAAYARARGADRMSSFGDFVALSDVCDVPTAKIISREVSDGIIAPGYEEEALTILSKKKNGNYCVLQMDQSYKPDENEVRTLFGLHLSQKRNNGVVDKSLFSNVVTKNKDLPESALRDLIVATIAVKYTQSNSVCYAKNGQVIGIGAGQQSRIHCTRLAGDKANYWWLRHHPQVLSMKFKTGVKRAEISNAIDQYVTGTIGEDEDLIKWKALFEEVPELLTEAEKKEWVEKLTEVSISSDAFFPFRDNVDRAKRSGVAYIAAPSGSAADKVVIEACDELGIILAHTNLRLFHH

SMILES | Ki
CCNC(=O)[C@H](Cc1ccc(O)cc1)NC(=O)[C@H](CCCN=C(N)N)NC(C)=O [RY Analogue, 8] (Ac-Arg-Tyr-NHEt) | 84 µM
CCNC(=O)[C@H](Cc1ccccc1)NC(=O)[C@H](CCCN=C(N)N)NC(C)=O [RY Analogue, 9] | 339 µM
CCNC(=O)[C@H](Cc1ccc(F)cc1)NC(=O)[C@H](CCCN=C(N)N)NC(C)=O [RY Analogue, 10] | 135 µM
CCNC(=O)[C@H](Cc1ccc(OC)cc1)NC(=O)[C@H](CCCN=C(N)N)NC(C)=O [RY Analogue, 11] (Ac-Arg-Tyr(Me)-NHEt) | 87 µM
CCNC(=O)[C@H](Cc1ccc(O)cc1)N(C)C(=O)[C@H](CCCN=C(N)N)NC(C)=O [RY Analogue, 16] (Ac-Arg-[NMeY]-NHEt) | 145 µM

Stronger by Ki, values ahead:

Ki | SMILES
59 µM | CCNC(=O)[C@H](Cc1ccc(B(O)O)cc1)NC(=O)[C@H](CCCN=C(N)N)NC(C)=O [RY Analogue, 13]
56 µM | CCNC(=O)[C@H](Cc1ccc(C#N)cc1)NC(=O)[C@H](CCCN=C(N)N)NC(C)=O [RY Analogue, 12]
2.5 µM | CCNC(=O)[C@H](Cc1ccc([N+](=O)[O-])cc1)N(C)C(=O)[C@H](CCCN=C(N)N)NC(C)=O [RY Analogue, 17]
0.685 µM | CCNC(=O)[C@H](Cc1ccc([N+](=O)[O-])cc1)NC(=O)[C@H](CCCN=C(N)N)NC(C)=O [RY Analogue, 14]
